Values after ≈ are worked out from the molar mass of the structure shown.
Legend:
[1] = system: Streptococcus pneumoniae; assay: Antibacterial activity against Streptococcus pneumoniae ARC548 by broth microdilution method; format: functional
[2] = Solubility of the compound by high throughput solubility assay; format: physicochemical
[3] = system: Haemophilus influenzae; assay: Antibacterial activity against Haemophilus influenzae ARC737 by broth microdilution method; format: functional
[4] = Protein binding in human plasma assessed as unbound fraction at 10 uM measured after 16 hrs by LC-MS/MS based equilibrium dialysis method; format: ADME, cell-free
[5] = system: Escherichia coli; assay: Antibacterial activity against Escherichia coli ARC523 by broth microdilution method; format: functional
[6] = system: Staphylococcus aureus; assay: Antibacterial activity against methicillin/quinolone-resistant Staphylococcus aureus ARC517 by broth microdilution method; format: functional
[7] = system: Staphylococcus aureus; assay: Antibacterial activity against methicillin sensitive Staphylococcus aureus ARC516 by broth microdilution method; format: functional
[8] = Inhibition of recombinant Escherichia coli DNA gyrase AB expressed in Escherichia coli BL21 (DE3) using relaxed pJT519 DNA as substrate preincubated for 20 mins followed by 5'-BODIPY-TMR-TTCTTCTTCT addition and measured after 1 hr by fluorescence anisotropy
[9] = n-octanol/phosphate buffer partition coefficient, log D of the compound at pH 7.4 measured after 1 hr by UV-LC/MS based shake flask method; format: physicochemical
[10] = system: Staphylococcus aureus; assay: Antibacterial activity against methicillin sensitive Staphylococcus aureus ARC516 in presence of human serum by broth microdilution method; format: functional
[11] = system: Streptococcus pyogenes; assay: Antibacterial activity against Streptococcus pyogenes ARC838 by broth microdilution method; format: functional
[12] = system: L5178Y; assay: Genotoxicity in mouse L5178Y cells using DAPI staining by microscopy based micronucleation assay; format: toxicity, cell-based
[13] = Ratio of MIC for antibacterial activity against methicillin/quinolone-resistant Staphylococcus aureus ARC517 to protein binding in human plasma assessed as unbound fraction

| Structure (SMILES) | MIC [1] [µM] | solubility [2] [µM] | MIC [3] [µM] | fraction unbound at 16 h, 10 µM [4] | MIC [5] [µM] | MIC [6] [µM] | MIC [7] [µM] | IC50 [8] [nM] | logD at 1 h [9] | MIC [10] [µM] | MIC [11] [µM] | NOAEL [12] [µM] | Ratio [13] |
| --- | --- | --- | --- | --- | --- | --- | --- | --- | --- | --- | --- | --- | --- |
| Cc1ncnn1-c1noc2c(F)c3c(cc12)CC1(C(=O)NC(=O)NC1=O)[C@H]1[C@H](C)O[C@H](C)CN31 | 0.78 (≈ 0.366 µg/mL) | 22 (≈ 10.3 µg/mL) | 1.6 (≈ 0.751 µg/mL) | 0.098 | 50 (≈ 23.5 µg/mL) | 0.39 (≈ 0.183 µg/mL) | 0.2 (≈ 0.0939 µg/mL) | 340 | 2.1 | 0.39 | 0.55 (≈ 0.258 µg/mL) |  |  |
| C[C@@H]1CN2c3c(cc4c(-n5ncnc5[C@@H](C)O)noc4c3F)CC3(C(=O)NC(=O)NC3=O)[C@H]2[C@H](C)O1 | 0.78 (≈ 0.39 µg/mL) | 920 (≈ 460 µg/mL) | 0.78 (≈ 0.39 µg/mL) | 0.23 | 50 (≈ 25 µg/mL) | 0.78 (≈ 0.39 µg/mL) | 0.39 (≈ 0.195 µg/mL) | 180 | 1.4 | 0.78 | 0.78 (≈ 0.39 µg/mL) |  |  |
| C[C@@H]1CN2c3c(cc4c(-n5ncnc5NCC(=O)N5CC[C@@H](N(C)C)C5)noc4c3F)CC3(C(=O)NC(=O)NC3=O)[C@H]2[C@H](C)O1 | < 0.2 | 690 (≈ 431 µg/mL) | 1.6 (≈ 0.999 µg/mL) | 0.26 | 25 (≈ 15.6 µg/mL) | 1.6 (≈ 0.999 µg/mL) | 0.2 (≈ 0.125 µg/mL) | 80 | 1.3 | 0.2 | 0.39 (≈ 0.244 µg/mL) |  |  |
| C[C@@H]1CN2c3c(cc4c(-n5ncnc5[C@H](C)O)noc4c3F)CC3(C(=O)NC(=O)NC3=O)[C@H]2[C@H](C)O1 | 1.6 (≈ 0.799 µg/mL) | 960 (≈ 479 µg/mL) | 1.6 (≈ 0.799 µg/mL) | 0.21 | 79 (≈ 39.5 µg/mL) | 1.6 (≈ 0.799 µg/mL) | 0.78 (≈ 0.39 µg/mL) | 430 | 1.3 | 1.6 | 1.6 (≈ 0.799 µg/mL) |  |  |
| C[C@@H]1CN2c3c(cc4c(-n5ncnc5NCCN(C)C)noc4c3F)CC3(C(=O)NC(=O)NC3=O)[C@H]2[C@H](C)O1 | 0.39 (≈ 0.211 µg/mL) | > 1000 | 1.6 (≈ 0.866 µg/mL) | 0.53 | 50 (≈ 27.1 µg/mL) | 6.2 (≈ 3.36 µg/mL) | 0.78 (≈ 0.422 µg/mL) | 150 | 1.4 | 0.78 | 0.39 (≈ 0.211 µg/mL) | > 400 |  |
| C[C@@H]1CN2c3c(cc4c(-n5cc(C#N)cn5)noc4c3F)CC3(C(=O)NC(=O)NC3=O)[C@H]2[C@H](C)O1 |  | 10 (≈ 4.79 µg/mL) |  | 0.044 | 25 (≈ 12 µg/mL) | 0.2 (≈ 0.0959 µg/mL) | < 0.2 | 400 | 2.4 | 0.39 |  |  | 4.5 |
| COCCOc1ncnn1-c1noc2c(F)c3c(cc12)CC1(C(=O)NC(=O)NC1=O)[C@H]1[C@H](C)O[C@H](C)CN31 | < 0.2 | 640 (≈ 339 µg/mL) | 0.39 (≈ 0.206 µg/mL) | 0.12 | 100 (≈ 52.9 µg/mL) | 1.6 (≈ 0.847 µg/mL) | 0.39 (≈ 0.206 µg/mL) | 320 | 1.7 | 1.6 | < 0.2 |  |  |
| C[C@@H]1CN2c3c(cc4c(-n5ncnc5NCCO)noc4c3F)CC3(C(=O)NC(=O)NC3=O)[C@H]2[C@H](C)O1 | 0.39 (≈ 0.201 µg/mL) | 625 (≈ 322 µg/mL) | 0.39 (≈ 0.201 µg/mL) | 0.14 | 25 (≈ 12.9 µg/mL) | 0.78 (≈ 0.401 µg/mL) | 0.39 (≈ 0.201 µg/mL) | 270 | 1.6 | < 0.2 | 0.39 (≈ 0.201 µg/mL) |  |  |
| C[C@@H]1CN2c3c(cc4c(-n5ncnc5NCCN5CCOCC5)noc4c3F)CC3(C(=O)NC(=O)NC3=O)[C@H]2[C@H](C)O1 | 0.39 (≈ 0.228 µg/mL) | 150 (≈ 87.5 µg/mL) | 1.6 (≈ 0.934 µg/mL) | 0.11 | 100 (≈ 58.4 µg/mL) | 3.5 (≈ 2.04 µg/mL) | < 0.2 | 310 | 2.1 | 0.78 | 0.39 (≈ 0.228 µg/mL) |  |  |
| C[C@@H]1CN2c3c(cc4c(-n5ncnc5NC[C@@H](C)O)noc4c3F)CC3(C(=O)NC(=O)NC3=O)[C@H]2[C@H](C)O1 | < 0.2 | > 1000 | 0.39 (≈ 0.206 µg/mL) | 0.13 | 25 (≈ 13.2 µg/mL) | 0.63 (≈ 0.333 µg/mL) | 0.098 (≈ 0.0518 µg/mL) | 160 | 1.9 | < 0.2 | < 0.2 | 12 |  |
| C[C@@H]1CN2c3c(cc4c(-n5nccn5)noc4c3F)CC3(C(=O)NC(=O)NC3=O)[C@H]2[C@H](C)O1 |  | 810 (≈ 369 µg/mL) |  | 0.031 | 12.5 (≈ 5.69 µg/mL) | 0.78 (≈ 0.355 µg/mL) | < 0.2 | 240 | 1.95 | 1.56 |  |  | 25 |
| C[C@@H]1CN2c3c(cc4c(-n5cccn5)noc4c3F)CC3(C(=O)NC(=O)NC3=O)[C@H]2[C@H](C)O1 (racemic) |  | 29 (≈ 13.2 µg/mL) |  | < 0.01 | 25 (≈ 11.4 µg/mL) | 0.78 (≈ 0.354 µg/mL) | 0.39 (≈ 0.177 µg/mL) |  | 3 | 3.1 |  |  | >80 |
| C[C@@H]1CN2c3c(cc4c(-n5ncnc5C#N)noc4c3F)CC3(C(=O)NC(=O)NC3=O)[C@H]2[C@H](C)O1 | 0.39 (≈ 0.187 µg/mL) | 560 (≈ 269 µg/mL) | 0.39 (≈ 0.187 µg/mL) | 0.076 | 6.2 (≈ 2.98 µg/mL) | < 0.2 | < 0.2 | 320 | 2 | 0.39 | 0.39 (≈ 0.187 µg/mL) |  |  |
| COCCNc1ncnn1-c1noc2c(F)c3c(cc12)CC1(C(=O)NC(=O)NC1=O)[C@H]1[C@H](C)O[C@H](C)CN31 | < 0.2 | 6 (≈ 3.17 µg/mL) | 0.39 (≈ 0.206 µg/mL) | 0.077 | 25 (≈ 13.2 µg/mL) | 0.098 (≈ 0.0518 µg/mL) | 0.039 (≈ 0.0206 µg/mL) | 38 | 2.2 | < 0.2 | < 0.2 |  |  |
| C[C@@H]1CN2c3c(cc4c(-n5cnnc5)noc4c3F)CC3(C(=O)NC(=O)NC3=O)[C@H]2[C@H](C)O1 |  | > 1000 |  | 0.34 | > 200 | 25 (≈ 11.4 µg/mL) | 6.25 (≈ 2.85 µg/mL) | 300 | 0.54 | 12.5 |  |  | 74 |
| C[C@@H]1CN2c3c(cc4c(-n5ncnc5N(C)C)noc4c3F)CC3(C(=O)NC(=O)NC3=O)[C@H]2[C@H](C)O1 | 1.6 (≈ 0.798 µg/mL) | > 1000 | 1.6 (≈ 0.798 µg/mL) | 0.13 | 100 (≈ 49.8 µg/mL) | 0.78 (≈ 0.389 µg/mL) | 0.39 (≈ 0.194 µg/mL) | 670 | 1.7 | 1.6 | 0.78 (≈ 0.389 µg/mL) |  |  |
| Cc1ncn(-c2noc3c(F)c4c(cc23)CC2(C(=O)NC(=O)NC2=O)[C@H]2[C@H](C)O[C@H](C)CN42)n1 | 3.1 (≈ 1.46 µg/mL) | 29 (≈ 13.6 µg/mL) | 1.6 (≈ 0.751 µg/mL) | 0.053 | 100 (≈ 46.9 µg/mL) | 0.78 (≈ 0.366 µg/mL) | 0.2 (≈ 0.0939 µg/mL) | 1000 | 1.9 | 0.78 | 0.78 (≈ 0.366 µg/mL) |  |  |
| C[C@@H]1CN2c3c(cc4c(-n5ncnc5N5CCOCC5)noc4c3F)CC3(C(=O)NC(=O)NC3=O)[C@H]2[C@H](C)O1 | 1.6 (≈ 0.865 µg/mL) | > 1000 | 1.6 (≈ 0.865 µg/mL) | 0.17 | 200 (≈ 108 µg/mL) | 0.98 (≈ 0.53 µg/mL) | 0.39 (≈ 0.211 µg/mL) | 660 | 1.6 | 0.78 | 0.78 (≈ 0.422 µg/mL) |  |  |
| C[C@@H]1CN2c3c(cc4c(-n5ccnn5)noc4c3F)CC3(C(=O)NC(=O)NC3=O)[C@H]2[C@H](C)O1 |  | 130 (≈ 59.2 µg/mL) |  | 0.054 | 6.25 (≈ 2.85 µg/mL) | 0.39 (≈ 0.178 µg/mL) | 0.068 (≈ 0.031 µg/mL) | 220 | 2 | 0.78 |  |  | 7.2 |
| C[C@@H]1CN2c3c(cc4c(-n5ncnc5NCC(=O)N5CC[C@H](N(C)C)C5)noc4c3F)CC3(C(=O)NC(=O)NC3=O)[C@H]2[C@H](C)O1 | < 0.2 | 880 (≈ 550 µg/mL) | 1.6 (≈ 0.999 µg/mL) | 0.26 | 50 (≈ 31.2 µg/mL) | 2.2 (≈ 1.37 µg/mL) | 0.2 (≈ 0.125 µg/mL) | 180 | 1.7 | 0.2 | 0.39 (≈ 0.244 µg/mL) | 12 |  |
| CNS(=O)(=O)c1cnn(-c2noc3c(F)c4c(cc23)CC2(C(=O)NC(=O)NC2=O)[C@H]2[C@H](C)O[C@H](C)CN42)c1 |  | 21 (≈ 11.5 µg/mL) |  | 0.068 | 50 (≈ 27.4 µg/mL) | 1.56 (≈ 0.854 µg/mL) | 0.39 (≈ 0.214 µg/mL) | 610 | 2.2 | 1.6 |  |  | 23 |
| CO/N=C1\CN(c2nc3c(cc2F)c(=O)c(C(=O)O)cn3C2CC2)CC1CN (stereo not given) [GEMIFLOXACIN] |  |  |  |  |  |  |  |  |  |  |  | 3 |  |
| C[C@H](O)CNc1ncnn1-c1noc2c(F)c3c(cc12)CC1(C(=O)NC(=O)NC1=O)[C@H]1[C@H](C)O[C@H](C)CN31 | 0.19 (≈ 0.1 µg/mL) | 200 (≈ 106 µg/mL) | 0.39 (≈ 0.206 µg/mL) | 0.12 | 25 (≈ 13.2 µg/mL) | 0.63 (≈ 0.333 µg/mL) | < 0.2 | 260 | 1.9 | < 0.2 | 0.19 (≈ 0.1 µg/mL) |  |  |
| C[C@@H]1CN2c3c(cc4c(-n5ncnc5N)noc4c3F)CC3(C(=O)NC(=O)NC3=O)[C@H]2[C@H](C)O1 | 0.098 (≈ 0.0461 µg/mL) | 460 (≈ 216 µg/mL) | 0.39 (≈ 0.183 µg/mL) | 0.11 | 12 (≈ 5.65 µg/mL) | < 0.2 | 0.049 (≈ 0.0231 µg/mL) | 75 | 1.9 | < 0.2 | 0.098 (≈ 0.0461 µg/mL) | 6 |  |

Source: ChEMBL document CHEMBL4725408, “Antibacterial Spiropyrimidinetriones with N-Linked Azole Substituents on a Benzisoxazole Scaffold Targeting DNA Gyrase” (J Med Chem, 2020)
